The target in experiment [1] is T1, Kappa-type opioid receptor (Homo sapiens, UniProt P41145). Put plainly: Antagonist activity at human kappa opioid receptor expressed in CHO cells assessed as stimulation of [35S]GTPgammaS. Format: functional, cell-based.
For experiment [2], the target named is Mu-type opioid receptor (Homo sapiens, UniProt P35372). Kind of experiment: Antagonist activity at human mu opioid receptor expressed in CHO cells assessed as stimulation of [35S]GTPgammaS. Format: functional, cell-based. (In general: Binding of GTPγS marks nucleotide exchange on a G protein.)
Sequence of Mu-type opioid receptor (Homo sapiens, UniProt P35372) (P35372 whole entry): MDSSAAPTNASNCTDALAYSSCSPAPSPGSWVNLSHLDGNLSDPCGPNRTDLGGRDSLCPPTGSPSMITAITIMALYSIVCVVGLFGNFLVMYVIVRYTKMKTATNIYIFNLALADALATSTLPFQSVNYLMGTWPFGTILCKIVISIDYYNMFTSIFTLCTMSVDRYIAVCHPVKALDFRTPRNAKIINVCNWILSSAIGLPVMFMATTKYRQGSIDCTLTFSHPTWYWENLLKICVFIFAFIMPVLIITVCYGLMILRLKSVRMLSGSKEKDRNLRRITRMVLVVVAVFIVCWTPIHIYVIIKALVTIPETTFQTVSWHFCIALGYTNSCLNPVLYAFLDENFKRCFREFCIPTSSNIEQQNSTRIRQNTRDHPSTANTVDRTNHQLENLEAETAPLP
Experiment [3] addresses Delta-type opioid receptor (Homo sapiens, UniProt P41143). Put plainly: Antagonist activity at human delta opioid receptor expressed in CHO cells assessed as stimulation of [35S]GTPgammaS. Type of experiment: functional, cell-based.
In experiment [4] the target is T2, Mu-type opioid receptor (Rattus norvegicus, UniProt P33535). Put plainly: Displacement of [3H]-diprenorphine from rat mu-opioid receptor in expressed in rat C6 cell membranes after 1 hr. (In general: Displacement assays read how much labelled ligand stays bound in the presence of the test substance.)
T2 sequence (P33535 whole entry): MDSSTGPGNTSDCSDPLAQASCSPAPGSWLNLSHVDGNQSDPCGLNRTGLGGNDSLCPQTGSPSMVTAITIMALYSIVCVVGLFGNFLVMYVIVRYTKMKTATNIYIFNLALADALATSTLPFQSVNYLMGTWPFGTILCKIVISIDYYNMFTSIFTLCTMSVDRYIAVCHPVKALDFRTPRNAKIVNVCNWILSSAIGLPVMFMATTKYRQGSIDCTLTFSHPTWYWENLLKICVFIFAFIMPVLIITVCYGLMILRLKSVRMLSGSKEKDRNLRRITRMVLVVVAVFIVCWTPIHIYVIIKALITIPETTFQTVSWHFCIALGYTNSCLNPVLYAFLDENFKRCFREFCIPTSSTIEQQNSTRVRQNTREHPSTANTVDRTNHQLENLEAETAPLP
Experiment [5] is described as follows: Selectivity ratio of Ki for rat mu-opioid receptor in expressed in rat C6 cell membranes to Ki for human kappa opioid receptor expressed in CHO cell membranes. Type of experiment: cell-based.
The target in experiment [6] is T1, Kappa-type opioid receptor. Kind of experiment: Displacement of [3H]-diprenorphine from human kappa opioid receptor expressed in CHO cells after 1 hr. Type of experiment: cell-based.
For experiment [7], the species on record is Homo sapiens. Kind of experiment: Selectivity ratio of Ki for delta opioid receptor (unknown origin) to Ki for kappa opioid receptor (unknown origin).
For experiment [8], the target named is T1, Kappa-type opioid receptor. Kind of experiment: Antagonist activity at kappa opioid receptor (unknown origin). Type of experiment: functional.
For experiment [9], the species on record is Homo sapiens. Put plainly: Selectivity ratio of Ki for Mu opioid receptor (unknown origin) to Ki for kappa opioid receptor (unknown origin).
In experiment [10] the test system is Rattus norvegicus. Kind of experiment: […] activity in po dosed rat assessed as reversal of U-69593-induced pain response. Format: functional.
The target of experiment [11] is T2, Mu-type opioid receptor. Kind of experiment: Displacement of [3H]DAMGO from mu-opioid receptor in rat brain membranes after 2 hrs. Format: cell membranes, Membrane.
The target of experiment [12] is Delta-type opioid receptor (Rattus norvegicus, UniProt P33533). Kind of experiment: Displacement of [3H]DADLE from delta-opioid receptor in rat brain membranes after 2 hrs. Format: cell membranes, Membrane.
Sequence of Delta-type opioid receptor (Rattus norvegicus, UniProt P33533) (P33533 whole entry): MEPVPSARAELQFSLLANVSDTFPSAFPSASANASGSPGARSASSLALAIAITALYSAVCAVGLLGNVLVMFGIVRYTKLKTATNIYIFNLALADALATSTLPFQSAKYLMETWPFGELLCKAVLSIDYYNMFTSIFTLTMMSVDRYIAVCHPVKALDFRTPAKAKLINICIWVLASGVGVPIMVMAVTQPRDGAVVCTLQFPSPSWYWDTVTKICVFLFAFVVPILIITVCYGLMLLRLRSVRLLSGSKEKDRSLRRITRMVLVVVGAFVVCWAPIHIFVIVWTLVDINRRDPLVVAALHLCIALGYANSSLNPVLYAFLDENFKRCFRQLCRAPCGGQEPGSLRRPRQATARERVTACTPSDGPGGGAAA
Experiment [13] can be described thus: Selectivity ratio of Ki for mu-opioid receptor in rat brain membranes to Ki for kappa opioid receptor in guinea pig brain membranes. Format: cell membranes.
The nature of experiment [14]: Selectivity ratio of Ki for delta-opioid receptor in rat brain membranes to Ki for kappa opioid receptor in guinea pig brain membranes. Format: cell membranes.
Experiment [15] concerns the target Kappa-type opioid receptor (Cavia porcellus) (UniProt P41144). Put plainly: Displacement of [3H]CI-977 from kappa opioid receptor in guinea pig brain membranes after 2 hrs by scintillation counting method. Format: cell membranes. Conditions: Membrane, concentration not given here.
Experiment [16] addresses G_PROTEIN_RECEP_F1_2 domain-containing protein (Cavia porcellus, UniProt A0A286XTF2). Kind of experiment: Displacement of [3H]DPDPE from delta-opioid receptor in guinea pig brain membranes after 30 mins by scintillation counting method. Format: cell membranes, Membrane.
The species named for experiment [17] is Oryctolagus cuniculus. Put plainly: Antagonist activity at KOR in Japanese white rabbit vas deferens assessed as inhibition of asimadoline-induced suppression of electric field stimulated twitch response after 30 mins.
The target in experiment [18] is Kappa-type opioid receptor (Cavia porcellus, UniProt P41144). Put plainly: Displacement of [3H]U69,593 from kappa opioid receptor in guinea pig brain membranes after 2 hrs. Format: cell membranes, Membrane.
Sequence of Kappa-type opioid receptor (Cavia porcellus, UniProt P41144) (P41144 whole entry): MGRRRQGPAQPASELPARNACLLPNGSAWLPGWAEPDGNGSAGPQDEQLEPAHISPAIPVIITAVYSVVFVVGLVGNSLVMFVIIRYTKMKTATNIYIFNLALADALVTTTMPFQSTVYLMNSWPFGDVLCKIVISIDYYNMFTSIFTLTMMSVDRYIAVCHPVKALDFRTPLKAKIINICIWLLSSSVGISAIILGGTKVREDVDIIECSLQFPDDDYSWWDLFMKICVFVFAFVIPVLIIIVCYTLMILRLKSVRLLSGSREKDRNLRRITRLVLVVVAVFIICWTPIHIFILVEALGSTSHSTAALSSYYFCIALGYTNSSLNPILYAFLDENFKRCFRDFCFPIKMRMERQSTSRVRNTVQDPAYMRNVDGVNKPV

The results in this text go back to ChEMBL document CHEMBL4251556, “Selective kappa opioid antagonists for treatment of addiction, are we there yet?” (Eur J Med Chem, 2017).

Residues, ends and D or L forms follow the SMILES beside them.

T1 sequence (P41145 whole entry): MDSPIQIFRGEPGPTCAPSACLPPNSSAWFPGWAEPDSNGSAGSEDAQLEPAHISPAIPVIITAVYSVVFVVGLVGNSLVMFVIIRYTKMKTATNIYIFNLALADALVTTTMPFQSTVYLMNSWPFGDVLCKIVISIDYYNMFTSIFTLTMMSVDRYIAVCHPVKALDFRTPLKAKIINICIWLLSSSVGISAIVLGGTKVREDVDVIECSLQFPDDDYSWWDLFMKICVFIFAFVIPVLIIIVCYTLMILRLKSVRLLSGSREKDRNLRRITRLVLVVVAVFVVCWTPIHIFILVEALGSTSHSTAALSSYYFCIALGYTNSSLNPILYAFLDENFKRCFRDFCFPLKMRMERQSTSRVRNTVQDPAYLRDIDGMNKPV
Sequence of G_PROTEIN_RECEP_F1_2 domain-containing protein (A0A286XTF2 whole entry): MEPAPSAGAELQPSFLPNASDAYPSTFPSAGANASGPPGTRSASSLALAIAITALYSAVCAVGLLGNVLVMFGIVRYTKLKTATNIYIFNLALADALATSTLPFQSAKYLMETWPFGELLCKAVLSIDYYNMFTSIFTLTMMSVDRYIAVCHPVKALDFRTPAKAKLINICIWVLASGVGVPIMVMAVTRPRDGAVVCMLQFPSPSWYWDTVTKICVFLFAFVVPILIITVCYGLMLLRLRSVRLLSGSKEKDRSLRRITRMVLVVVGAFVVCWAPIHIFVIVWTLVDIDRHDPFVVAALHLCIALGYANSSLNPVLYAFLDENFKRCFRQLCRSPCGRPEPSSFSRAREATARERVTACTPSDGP
Sequence of Kappa-type opioid receptor (Cavia porcellus) (P41144 whole entry): as the sequence (P41144 whole entry) above
Sequence of Delta-type opioid receptor (Homo sapiens, UniProt P41143) (P41143 whole entry): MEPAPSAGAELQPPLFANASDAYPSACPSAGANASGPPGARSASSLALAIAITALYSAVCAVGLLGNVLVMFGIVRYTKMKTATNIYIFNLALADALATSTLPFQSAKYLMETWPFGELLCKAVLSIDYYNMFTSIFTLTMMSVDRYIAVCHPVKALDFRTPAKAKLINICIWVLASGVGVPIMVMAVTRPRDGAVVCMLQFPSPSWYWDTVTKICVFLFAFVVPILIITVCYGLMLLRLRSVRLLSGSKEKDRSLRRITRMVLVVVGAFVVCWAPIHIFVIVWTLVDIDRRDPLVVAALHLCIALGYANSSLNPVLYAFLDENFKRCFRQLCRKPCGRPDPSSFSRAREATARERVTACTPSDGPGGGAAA

By Ki is commonly meant the equilibrium dissociation constant of an inhibitor or competing ligand from its target. With `CCCCC(=N)NCCc1ccc2c(c1)C1C[C@@]3(O)[C@H]4Cc5ccc(O)c6c5[C@@]3(CCN4CC3CC3)[C@@H](O6)C1N2` (some centres not stated), the Ki in [1] stood at 0.17 nM; in [2], 5.33 nM; in experiment [3], 3.31 nM.
As to `C[C@H]1CN(CCCOC(=O)[C@H]2Cc3ccc(O)cc3CN2)CC[C@@]1(C)c1cccc(O)c1`, the Ki in [4] stood at 93 nM; in experiment [6] it was 174 nM. Besides, the Ratio Ki in experiment [5] came to 0.54.
As to `CC(=O)N[C@@H](Cc1ccccc1)C(=O)N[C@@H](Cc1ccccc1)C(=O)N[C@@H](Cc1ccccc1)C(=O)N[C@@H](CCCNC(=N)N)C(=O)N[C@@H](CC(C)C)C(=O)N[C@@H](CCCNC(=N)N)C(=O)N[C@@H](CCCNC(=N)N)C(=O)N[C@H](C)C(=O)N[C@@H](CCCNC(=N)N)C(=O)N1CCC[C@H]1C(=O)N[C@@H](CCCCN)C(N)=O` (HELM PEPTIDE1{[ac].F.F.F.R.L.R.R.[dA].R.P.K.[am]}$$$$V2.0), the results for the Ratio Ki in [7] and in experiment [9] were 583 and 174, respectively. Besides, the affinity in [8], expressed as Ki, was 10 nM.
On to `Cc1cc(C)cc([C@@H]2CCCN2Cc2ccc(Oc3ccc(C(N)=O)cc3F)cc2)c1` [ATICAPRANT], for which the ED50 in experiment [10] is 0.4 mg/kg.
Consider `CC(C)[C@@H](CN1CC[C@@](C)(c2cccc(O)c2)[C@@H](C)C1)NC(=O)[C@H]1Cc2ccc(O)cc2CN1` [JDTIC], for which the Ki in [11] was 2.16 nM; in experiment [12], greater than 300 nM.
`CC(C)[C@@H](CN1CC[C@@](C)(c2cccc(O)c2)[C@@H](C)C1)NC(=O)[C@H]1Cc2ccc(O)cc2CN1C(=O)CN(C)C`: the results for the Ratio Ki in experiment [13] and in experiment [14] were 11 and greater than 219, respectively.
Usually inhibition stands for how much of the control response was suppressed. Low readings indicate a response near the control, high ones a response far below the control. Regarding `CC(C)CNCc1ccc(-c2ccccc2S(=O)(=O)N2CCCC2)cc1`, the inhibition in experiment [15] stood at 82%.
A word on the IC50: it is the concentration that inhibits the measured activity by half. A low value points to higher potency. Turning to `O=C1N[C@@H](Cc2ccccc2)C(=O)N2CCC[C@@H]2C(=O)N[C@@H](Cc2ccccc2)C(=O)N[C@H]1Cc1c[nH]c2ccccc12` (HELM PEPTIDE1{F.W.F.[dP]}$PEPTIDE1,PEPTIDE1,1:R1-4:R2$$$V2.0), the IC50 in experiment [16] is 2600 nM. In addition, in [17], the ED50 was found to be 1300 nM.
In experiment [8], `N=C(N)NCCC[C@@H]1NC(=O)[C@H](CCCNC(=N)N)NC(=O)[C@H](NC(=O)[C@H](Cc2ccccc2)NC(=O)CNC(=O)CNC(=O)[C@H](Cc2ccc(O)cc2)NCc2ccccc2)CC(=O)NC[C@@H](C(=O)N[C@@H](CCCNC(=N)N)C(=O)N2CCC[C@H]2C(=O)N[C@@H](CCCCN)C(N)=O)NC1=O` had a Ki of 30 nM.
In turn, `CCOC(=O)C(CN1CC[C@@](C)(c2cccc(O)c2)[C@@H](C)C1)OC(=O)[C@H]1Cc2ccc(O)cc2CN1` (some centres not stated) displayed a Ki in experiment [6] of 2.39 nM.
With `C[C@H]1CN(CCOC(=O)[C@H]2Cc3ccc(O)cc3CN2)CC[C@@]1(C)c1cccc(O)c1`, the results for the Ki in experiment [4] and in [6] were 97.7 nM and 135 nM, respectively. Besides, the Ratio Ki in experiment [5] came to 0.72.
On to `CC(=O)N1Cc2cc(O)ccc2C[C@@H]1C(=O)N[C@H](CN1CC[C@@](C)(c2cccc(O)c2)[C@@H](C)C1)C(C)C`, for which the affinity in experiment [18], expressed as Ki, was 164 nM. In addition, the Ratio Ki in experiment [13] is 5; in experiment [14], greater than 34.
For the molecule `CC(C)[C@@H](CN1CC[C@@](C)(c2cccc(O)c2)[C@@H](C)C1)NC(=O)[C@H]1Cc2ccc(O)cc2CN1C`, the Ratio Ki was 700 in experiment [13] and 11600 in experiment [14].
